These compounds were tested on BEAS-2B cells (assay: Toxicity: compound concentration needed to induce greater than 50 percent of cell loss). Details: 18 hours incubation.
Assay type: cell-based, human
In short: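 Reported value is the concentration giving greater than 50 percent cell loss, grouped into bins (≥25 μM; between 1 and 25 μM; ≤1 μM as "+++"). Measured by high-content imaging of DAPI-stained BEAS-2B TFEB-EGFP cells fixed after 18 h compound exposure.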

| SMILES | toxicity (compound concentration needed to induce greater than 50 percent of cell loss) |
| --- | --- |
| CC(C)c1nc2ccc(Nc3nc(-c4ccncc4)nc4cc(F)ccc34)cc2s1 [Compound 355] | + (cell loss of greater than 50 percent at a concentration that equals or is greater than 25 μM was represented as) |
| O=[N+]([O-])c1ccc(-c2nc(Nc3cccc(F)c3)c3ccccc3n2)cc1 [Compound 9] | + (cell loss of greater than 50 percent at a concentration that equals or is greater than 25 μM was represented as) |
| Fc1cc(F)cc(Nc2nc(-c3ccncc3)nc3ccccc23)c1 [Compound 182] | + (cell loss of greater than 50 percent at a concentration that equals or is greater than 25 μM was represented as) |
| Cc1cc2c(F)c(Nc3nc(-c4ccncc4)nc4ccccc34)ccc2[nH]1 [Compound 30] | +++ (cell loss of greater than 50 percent at a concentration that equals or is less than 1 μM was represented as “+++.”) |
| Cc1ccc2nc(-c3ccncc3)nc(Nc3ccc4nc(C(C)C)sc4c3)c2c1 [Compound 154] | + (cell loss of greater than 50 percent at a concentration that equals or is greater than 25 μM was represented as) |
| CC(C)c1nc2ccc(Nc3nc(-c4ccncc4)nc4c(F)cccc34)cc2s1 [Compound 367] | + (cell loss of greater than 50 percent at a concentration that equals or is greater than 25 μM was represented as) |
| CC(C#N)CN(C)c1nc(-c2ccncc2)nc2ccccc12 (centres unmarked) [Compound 173] | + (cell loss of greater than 50 percent at a concentration that equals or is greater than 25 μM was represented as) |
| c1cnc2cc(-c3ccncc3)nc(Nc3ccc4[nH]c(C5CC5)cc4c3)c2c1 [Compound 244] | + (cell loss of greater than 50 percent at a concentration that equals or is greater than 25 μM was represented as) |
| CCc1nc2ccc(Nc3nc(-c4ccncc4)nc4c(OC)cccc34)cc2s1 [Compound 362] | + (cell loss of greater than 50 percent at a concentration that equals or is greater than 25 μM was represented as) |
| COc1cccc2c(Nc3ccc4nc(C(C)C)sc4c3)nc(-c3ccncc3)nc12 [Compound 153] | + (cell loss of greater than 50 percent at a concentration that equals or is greater than 25 μM was represented as) |
| FC1(F)Oc2ccc(Nc3nc(-c4ccncc4)nc4ccccc34)cc2O1 [Compound 17] | + (cell loss of greater than 50 percent at a concentration that equals or is greater than 25 μM was represented as) |
| c1ccc(CCNc2nc(-c3ccncc3)nc3ccccc23)nc1 [Compound 171] | + (cell loss of greater than 50 percent at a concentration that equals or is greater than 25 μM was represented as) |
| COc1ccc2nc(-c3ccncc3)nc(Nc3ccc4nc(C(C)C)sc4c3)c2c1 [Compound 376] | + (cell loss of greater than 50 percent at a concentration that equals or is greater than 25 μM was represented as) |
| O=C(Cn1c(=O)n(-c2ccccc2)c(=O)c2ccccc21)N1CCOCC1 [Compound 230] | + (cell loss of greater than 50 percent at a concentration that equals or is greater than 25 μM was represented as) |
| c1ccc2c(NC3CC3)nc(-c3ccncc3)nc2c1 [Compound 165] | + (cell loss of greater than 50 percent at a concentration that equals or is greater than 25 μM was represented as) |
| Cc1nc2cc(Nc3nc(-c4ccncc4)nc4ccccc34)ccc2s1 [Compound 95] | + (cell loss of greater than 50 percent at a concentration that equals or is greater than 25 μM was represented as) |
| CCCCc1nc2ccc(Nc3nc(-c4ccncc4)nc4ccccc34)cc2o1 [Compound 359] | + (cell loss of greater than 50 percent at a concentration that equals or is greater than 25 μM was represented as) |
| c1cc(-c2cc3cnccc3c(Nc3ccc4[nH]ccc4c3)n2)ccn1 [Compound 397] | + (cell loss of greater than 50 percent at a concentration that equals or is greater than 25 μM was represented as) |
| Cn1ccc2ccc(Nc3nc(-c4ccncc4)nc4ccccc34)cc21 [Compound 32] | +++ (cell loss of greater than 50 percent at a concentration that equals or is less than 1 μM was represented as “+++.”) |
| CC(C)(C)OC(=O)N1CC=C(c2nc(Nc3ccc4[nH]ccc4c3)c3ccccc3n2)CC1 [Compound 88] | + (cell loss of greater than 50 percent at a concentration that equals or is greater than 25 μM was represented as) |
| Cc1nc2ccc(Nc3nc(-c4ccncc4)nc4ccncc34)cc2o1 [Compound 140] | + (cell loss of greater than 50 percent at a concentration that equals or is greater than 25 μM was represented as) |
| O=[N+]([O-])c1cccc(-c2nc(Nc3cccc(F)c3)c3ccccc3n2)c1 [Compound 161] | + (cell loss of greater than 50 percent at a concentration that equals or is greater than 25 μM was represented as) |

The compounds below were run on TFEB (assay: High content screen measuring TFEB nuclear accumulation (TFEB nuclear/cytosol ratio) in BEAS-2B cells stably expressing TFEB-EGFP). Details: 18 hours incubation.
Assay type: cell-based, human
In short: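 Readout: lowest compound concentration giving a 25% rise in nuclear/cytosol TFEB-GFP ratio, from DAPI-masked nuclear and mask-expanded cytosolic signals. Cells (BEAS-2B, TFEB-EGFP stable, ~2300–2500/well) rested 8 hours, then treated 18 hours with compound serial dilutions in 2% FBS medium before PFA fixation and DAPI staining.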

| SMILES | efficacy (minimal compound concentration needed to increase TFEB nuclear/cytosol ratio by 25%) |
| --- | --- |
| CC(C)c1nc2ccc(Nc3nc(-c4ccncc4)nc4cc(F)ccc34)cc2s1 [Compound 355] | ++ (“++” equals between ≤25 μM and >1 μM) |
| O=[N+]([O-])c1ccc(-c2nc(Nc3cccc(F)c3)c3ccccc3n2)cc1 [Compound 9] | + (“+” equals >25 μM) |
| Fc1cc(F)cc(Nc2nc(-c3ccncc3)nc3ccccc23)c1 [Compound 182] | + (“+” equals >25 μM) |
| Cc1cc2c(F)c(Nc3nc(-c4ccncc4)nc4ccccc34)ccc2[nH]1 [Compound 30] | +++ (“+++” equals ≤1 μM) |
| Cc1ccc2nc(-c3ccncc3)nc(Nc3ccc4nc(C(C)C)sc4c3)c2c1 [Compound 154] | +++ (“+++” equals ≤1 μM) |
| CC(C)c1nc2ccc(Nc3nc(-c4ccncc4)nc4c(F)cccc34)cc2s1 [Compound 367] | ++ (“++” equals between ≤25 μM and >1 μM) |
| CC(C#N)CN(C)c1nc(-c2ccncc2)nc2ccccc12 (centres unmarked) [Compound 173] | + (“+” equals >25 μM) |
| c1cnc2cc(-c3ccncc3)nc(Nc3ccc4[nH]c(C5CC5)cc4c3)c2c1 [Compound 244] | +++ (“+++” equals ≤1 μM) |
| CCc1nc2ccc(Nc3nc(-c4ccncc4)nc4c(OC)cccc34)cc2s1 [Compound 362] | + (“+” equals >25 μM) |
| COc1cccc2c(Nc3ccc4nc(C(C)C)sc4c3)nc(-c3ccncc3)nc12 [Compound 153] | ++ (“++” equals between ≤25 μM and >1 μM) |
| FC1(F)Oc2ccc(Nc3nc(-c4ccncc4)nc4ccccc34)cc2O1 [Compound 17] | + (“+” equals >25 μM) |
| c1ccc(CCNc2nc(-c3ccncc3)nc3ccccc23)nc1 [Compound 171] | + (“+” equals >25 μM) |
| COc1ccc2nc(-c3ccncc3)nc(Nc3ccc4nc(C(C)C)sc4c3)c2c1 [Compound 376] | +++ (“+++” equals ≤1 μM) |
| O=C(Cn1c(=O)n(-c2ccccc2)c(=O)c2ccccc21)N1CCOCC1 [Compound 230] | + (“+” equals >25 μM) |
| c1ccc2c(NC3CC3)nc(-c3ccncc3)nc2c1 [Compound 165] | + (“+” equals >25 μM) |
| Cc1nc2cc(Nc3nc(-c4ccncc4)nc4ccccc34)ccc2s1 [Compound 95] | + (“+” equals >25 μM) |
| CCCCc1nc2ccc(Nc3nc(-c4ccncc4)nc4ccccc34)cc2o1 [Compound 359] | + (“+” equals >25 μM) |
| c1cc(-c2cc3cnccc3c(Nc3ccc4[nH]ccc4c3)n2)ccn1 [Compound 397] | ++ (“++” equals between ≤25 μM and >1 μM) |
| Cn1ccc2ccc(Nc3nc(-c4ccncc4)nc4ccccc34)cc21 [Compound 32] | +++ (“+++” equals ≤1 μM) |
| CC(C)(C)OC(=O)N1CC=C(c2nc(Nc3ccc4[nH]ccc4c3)c3ccccc3n2)CC1 [Compound 88] | + (“+” equals >25 μM) |
| Cc1nc2ccc(Nc3nc(-c4ccncc4)nc4ccncc34)cc2o1 [Compound 140] | + (“+” equals >25 μM) |
| O=[N+]([O-])c1cccc(-c2nc(Nc3cccc(F)c3)c3ccccc3n2)c1 [Compound 161] | + (“+” equals >25 μM) |

Reference: US12286442B2, “Methods and materials for increasing transcription factor eb polypeptide levels” (University of Pittsburgh—Of the Commonwealth System of …, priority 2019, dated 2025)
